This is an account of results in US20240317748A1, “CARBONYL SUBSTITUTED DIAZASPIRO COMPOUNDS AND ITS USE” (BIONOVA PHARMACEUTICALS (SHANGHAI) LIMITED, priority 2021, published 2024).

Data set [1] deals with OCI-AML3 cells. Nature of the data set: Cell proliferation assay (CellTiter-Glo), OCI-AML3. The following applies: Homo sapiens, OCI-AML-3, 120 h; OCI-AML3 (NPM1c mutation), 5 days incubation; read-out: Cell antiproliferation assay OCI-AML3 IC50. The class given is cell-based, human. On the procedure: (§1) The antiproliferative activity of test compounds was assessed in human leukemia cell lines. The cell line MV4-11, MOLM13 and OCI-AML3, which expresses the MLL fusion protein MLL-AF4, MLL-AF9 and carry the NPM1c gene mutation, respectively, were tested. HL-60 was used as a control cell line containing two MLL wildtype alleles in order to exclude compounds that display general cytotoxic effect. MV4-11 cells were cultured in IMDM supplemented with 10% FBS, MOLM13 and OCI-AML3 cells were cultured in RPMI1640 supplemented with 20% FBS, and HL-60 cells were cultured in IMDM supplemented with 20% FBS. Corresponding cells (MV4-11, MOLM13, OCI-AML3 or HL-60 cell line) were seeded in 100 uL medium per well in 96-well plate (white wall with clear bottom, tissue culture treated, Corning, Cat. No. CLS3903; Lot.No. 30419025). Plates were placed in the CO2 incubator overnight. Compounds solution (2 mM starting, 4-fold serial dilution) were prepared and added to the wells containing 100 μL of the culture medium with HPD300 according to the plate map and centrifuge at 1000 rpm for 1 minutes (200-fold dilution totally). MV4-11, MOLM13, OCI-AML3 and HL-60 cells were incubated with the compounds for 4, 12, 5 and 4 days, respectively, under 5% CO2 at 37° C., respectively. 100 μL of CellTiter-Glo reagent (Promega, Cat. No. G7573, Lot. No. 0000416710) was added to the assay plate by Multidrop Combi instrument, contents were mixed for 10 minutes on an orbital shaker to induce cell lysis. After incubation at room temperature for 10 mins, clear bottom with white back seal was pasted and luminescence with Envision was read.

The subject of data set [2] is HL-60 cells. Nature of the data set: Cell proliferation assay (CellTiter-Glo), HL-60 control line. Type of data set: cell-based, human. The following applies: Homo sapiens, 96 h, 4 days incubation; for IC50: HL-60 control line (MLL wildtype), read-out: Cell antiproliferation assay HL-60 IC50; for inhibition at 10 µM: HL-60 control line, read-out: HL-60 (Pct of inhibition at 10 μM). On the procedure: as §1

The subject of data set [3] is MV-4-11 cells. Nature of the data set: Cell proliferation assay (CellTiter-Glo), MV-4-11. Type of data set: cell-based, human. The following applies: Homo sapiens, MV4-11, 96 h; MV-4-11 (MLL-AF4), 4 days incubation; read-out: Cell antiproliferation assay MV-4-11 IC50. The essentials:
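Antiproliferative activity by CellTiter-Glo luminescence; MV4-11 (MLL-AF4) in IMDM/10% FBS, 4 days; MOLM13 (MLL-AF9) in RPMI1640/20% FBS, 12 days; OCI-AML3 (NPM1c) in RPMI1640/20% FBS, 5 days; HL-60 (MLL wild-type control) in IMDM/20% FBS, 4 days. Compounds 4-fold serial from 2 mM stock, 200-fold final dilution; 37 °C, 5% CO2.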

For data set [4], the target named is T1, Menin-MLL1 (Homo sapiens, UniProt O00255).
T1 construct: Menin (2-610) isform2; purchased ChemPartner 2020111101
T1 sequence (O00255 2-610): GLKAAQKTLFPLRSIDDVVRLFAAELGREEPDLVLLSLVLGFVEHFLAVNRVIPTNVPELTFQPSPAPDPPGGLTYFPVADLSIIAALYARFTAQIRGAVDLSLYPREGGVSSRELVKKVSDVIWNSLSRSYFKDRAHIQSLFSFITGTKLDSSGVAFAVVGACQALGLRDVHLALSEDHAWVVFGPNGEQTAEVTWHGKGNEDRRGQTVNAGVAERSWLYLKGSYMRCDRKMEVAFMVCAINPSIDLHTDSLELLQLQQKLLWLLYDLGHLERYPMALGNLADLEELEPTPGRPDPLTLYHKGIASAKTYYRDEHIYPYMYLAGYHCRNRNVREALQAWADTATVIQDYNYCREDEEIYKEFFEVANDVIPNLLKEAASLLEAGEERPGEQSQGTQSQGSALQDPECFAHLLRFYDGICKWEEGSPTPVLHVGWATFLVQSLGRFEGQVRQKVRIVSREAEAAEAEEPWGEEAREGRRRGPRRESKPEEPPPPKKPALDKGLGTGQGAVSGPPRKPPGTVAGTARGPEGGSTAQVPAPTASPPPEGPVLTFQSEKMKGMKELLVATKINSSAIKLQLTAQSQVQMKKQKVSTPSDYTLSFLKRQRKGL
Nature of the data set: Menin-MLL1 inhibition assay (fluorescence polarization, Menin protein + FAM-MLL peptide). Type of data set: binding. The following applies: Menin (2-610) isoform 2, FAM-labelled MLL peptide, mP readout; read-out: Biochemical assay Menin-MLL1 IC50.

The subject of data set [5] is MOLM13 cells. In words: Cell proliferation assay (CellTiter-Glo), MOLM13. The class given is cell-based, human. The following applies: Homo sapiens, MOLM-13, 288 h; MOLM13 (MLL-AF9), 12 days incubation; read-out: Cell antiproliferation assay MOLM13 IC50. On the procedure:
as §1

Data set [6] in a line: Liver microsome stability study. The class given is in vitro ADME. The settings on record: human liver microsomes 0.5 mg/mL, 1 μM compound, NADPH, 37° C.; read-out: Human liver microsome T1/2. On the procedure: Studies were carried out in liver microsomes (Corning, 0.5 mg/mL). Stock solutions were prepared at 10 mM in DMSO for the test compounds. Aliquots of the stock solutions were diluted to 0.5 mM with acetonitrile, and then further diluted upon the addition of liver microsomes/buffer to 1.5 μM. An aliquot of 30 μL of 1.5 μM solutions was mixed with 15 μL of 6 mM NADPH and the final concentration of NADPH was 2 mM, which had been pre-warmed to 37° C. Test compounds and Ketanserin final concentrations were 1 μM. The plates were kept in a 37° C. water bath for the duration of the experiment. At each time point (0, 5, 15, 30, 45 minutes), 135 μL of acetonitrile was added into corresponding wells. After the final time point was quenched by acetonitrile, the assay plates were shaken at the vibrator (IKA, MTS 2/4) for 10 min (600 rpm/min) and then centrifuged at 5,594 g for 15 min (Thermo Multifuge×3R). Aliquots of the supernatant were taken, diluted 1:1 into distilled water, and analyzed by LC-MS/MS. The peak area response ratio to internal standard (PARR) of the compounds at 5, 15, 30, 45 minutes was compared to the PARR at time 0 to determine the percent of test compound remaining at each time point. Half-lives were calculated using Excel software, fitting to a single-phase exponential decay equation.

In the case of `CC(C)N(C(=O)c1cc(F)ccc1Oc1nncnc1N1CC2(CCN(C(=O)[C@@H]3C[C@@H](F)CN3)CC2)C1)C(C)C` [Example 56], the IC50 in data set [1] is 132 nM; in data set [2], over 10000 nM; in data set [3], 16.8 nM; in data set [4] it was 3.7 nM; in data set [5], 68.3 nM. In data set [2], the inhibition at 10 µM is -12.2%.
Consider `C[C@H]1CN[C@H](C(=O)N2CCC3(CC2)CN(c2ncnnc2Oc2ccc(F)cc2-c2cncnc2C2CC2)C3)C1` [Example 72], for which the half-life at 1 μM in data set [6] stood at 2.63 h. For the same compound, the IC50 is 56.3 nM in data set [3] and 5.5 nM in data set [4].
Take `CCN(C(=O)c1cc(F)ccc1Oc1nncnc1N1CC2(CCN(C(=O)[C@H]3NCC[C@@H]3CF)CC2)C1)C(C)C` [Example 88]: the IC50 in data set [1] is 102 nM; in data set [2], over 10000 nM; in data set [3], 24.2 nM; in data set [4], 3.2 nM; in data set [5], 68.6 nM. The inhibition at 10 µM in data set [2] was 11.4%.
Consider `CCN(C(=O)c1cc(F)ccc1Oc1cncnc1N1CC2(CCN(C(=O)[C@]3(C)CCCN3)CC2)C1)C(C)C` [Example 22], for which the half-life at 1 μM in data set [6] was found to be 1.53 h. Also, the IC50 in data set [3] was found to be 134 nM; in data set [4], 4.9 nM.
With `CCN(C(=O)c1cc(F)ccc1Oc1nncnc1N1CC2(CCN(C(=O)[C@H]3NCC[C@H]3C)CC2)C1)C(C)C` [Example 63], the half-life at 1 μM in data set [6] was determined as 2.08 h. The IC50 is 43.4 nM in data set [3] and 3.5 nM in data set [4].
Turning to `CC[C@@H]1[C@@H](C(=O)N2CCC3(CC2)CN(c2ncnnc2Oc2ccc(F)cc2C(=O)N(CC)C(C)C)C3)NC[C@@H]1F` [Example 86], the IC50 is 282 nM in data set [1]; over 10000 nM in data set [2]; 76 nM in data set [3]; 3.6 nM in data set [4]; 199 nM in data set [5]. Also, in data set [2], the inhibition at 10 µM was determined as 10.8%.
As for `N#Cc1ccc(-c2cc(F)ccc2Oc2nncnc2N2CC3(CCN(C(=O)[C@@H]4C[C@@H](F)CN4)CC3)C2)c(C2CC2)c1` [Example 67], the IC50 is over 10000 nM in data set [2], 20.5 nM in data set [3], 2.8 nM in data set [4] and 61.1 nM in data set [5]. Besides, the inhibition at 10 µM in data set [2] is 23.8%.
For `CC[C@H]1CCN[C@@H]1C(=O)N1CCC2(CC1)CN(c1ncnnc1Oc1ccc(F)cc1C(=O)N(CC)C(C)C)C2` [Example 70], the IC50 is 52.7 nM in data set [1]; over 10000 nM in data set [2]; 9.5 nM in data set [3]; 4.6 nM in data set [4]; 49.5 nM in data set [5]. For the same compound, the inhibition at 10 µM in data set [2] was determined as 1%.
With `N#Cc1ccc(-c2cc(F)ccc2Oc2nncnc2N2CC3(CCN(C(=O)[C@H]4NC[C@@H]5CCC[C@@H]54)CC3)C2)c(C2CC2)n1` [Example 90], the results for the IC50 in data set [3], in data set [4] and in data set [5] were 2.6 nM, 2.8 nM and 6.1 nM, respectively.
On to `CC1(C)[C@@H]2[C@@H](C(=O)N3CCC4(CC3)CN(c3ncnnc3Oc3ccc(F)cc3-c3cncnc3C3CC3)C4)NC[C@@H]21` [Example 81], for which the IC50 in data set [1] was 25.5 nM; in data set [2] it was over 10000 nM; in data set [3] it was 7.7 nM; in data set [4], 3.9 nM; in data set [5] it was 16.6 nM. Besides, the inhibition at 10 µM in data set [2] was 21.4%.
In the case of `O=C([C@@H]1C[C@@H](F)CN1)N1CCC2(CC1)CN(c1ncnnc1Oc1ccc(F)cc1-c1cncnc1C1CC1)C2` [Example 62], in data set [6], the half-life at 1 μM is 1.43 h. The IC50 in data set [2] was over 10000 nM; in data set [3] it was 39.5 nM; in data set [4], 3.4 nM. Moreover, the inhibition at 10 µM in data set [2] was -9.1%.
Consider `CCN(C(=O)c1cc(F)ccc1Oc1cncnc1N1CC2(CCN(C(=O)[C@H]3NCC[C@@H]3C)CC2)C1)C(C)C` [Example 41], for which the IC50 in data set [1] is 31.4 nM; in data set [2], over 10000 nM; in data set [3], 7.7 nM; in data set [4] it was 3.6 nM; in data set [5], 23.7 nM. Further, the inhibition at 10 µM in data set [2] is -22.2%.
In the case of `CCN(C(=O)c1cc(F)ccc1Oc1cncnc1N1CC2(CN(C(=O)[C@@H]3C[C@@H](F)CN3)C2)C1)C(C)C` [Example 38], the half-life at 1 μM in data set [6] was determined as 1 h. Further, the IC50 in data set [3] worked out at 69 nM; in data set [4], 3.3 nM.
The corresponding values for `CCN(C(=O)c1cc(F)ccc1Oc1nncnc1N1CC2(CCN(C(=O)[C@@H]3C[C@H](C)CN3)CC2)C1)C(C)C` [Example 87] are 1.1 h, 41.6 nM and 4.9 nM.
Take `CC(C)N(C(=O)c1cc(F)ccc1Oc1nncnc1N1CC2(CCN(C(=O)[C@H]3NCC[C@@H]3C)CC2)C1)C(C)C` [Example 64]: the IC50 in data set [2] is over 10000 nM; in data set [3], 9.6 nM; in data set [4], 1.9 nM; in data set [5], 20.2 nM. In addition, in data set [2], the inhibition at 10 µM stood at 11.2%.
On to `N#Cc1ccc(-c2cc(F)ccc2Oc2nncnc2N2CC3(CCN(C(=O)[C@H]4NC[C@@H]5C[C@@H]54)CC3)C2)c(C2CC2)c1` [Example 78], for which the IC50 in data set [1] is 28.1 nM; in data set [2], over 10000 nM; in data set [3], 6.5 nM; in data set [4] it was 2.9 nM; in data set [5] it was 14.2 nM. The inhibition at 10 µM in data set [2] was 40%.
Regarding `C[C@H]1CCN[C@@H]1C(=O)N1CCC2(CC1)CN(c1ncnnc1Oc1ccc(F)cc1-c1ccc(C#N)cc1C1CC1)C2` [Example 79], the IC50 was 25.9 nM in data set [1]; over 10000 nM in data set [2]; 5.9 nM in data set [3]; 9.9 nM in data set [4]; 15.6 nM in data set [5]. Moreover, the inhibition at 10 µM in data set [2] was 33.8%.
On to `C[C@@H]1CCN[C@@H]1C(=O)N1CCC2(CC1)CN(c1ncnnc1Oc1ccc(F)cc1-c1cncnc1C1CC1)C2` [Example 69], for which the half-life at 1 μM in data set [6] stood at 2.57 h. For the same compound, the values for the IC50 in data set [3] and in data set [4] were 56.4 nM and 4.4 nM, respectively.
